This note sets out measurements from patent EP4759807A1, “PROTEOLYSIS TARGETING CHIMERA COMPOUND FOR DEGRADING IRAK4 AND USE THEREOF” (Shenzhen Zhongge Biological Technology Co., Ltd., priority 2023, dated 2025).

Like-named read-outs stand apart in the source and are kept apart here.

Broadly, the IC50 is the concentration at which inhibition is half-maximal.

One series addresses T1, hERG ion channel (Homo sapiens, UniProt Q12809).
T1 construct: host or cells: HEK293
Description: Inhibitory effect on hERG ion channels (manual patch clamp). In kind it is cell-based. Particulars: HEK293 cells stably expressing hERG channels, read-out: hERG (IC50, manupatch). As for the experimental part: In this experiment, the inhibitory effect of the compound on the hERG ion channel was detected by a manual patch clamp electrophysiological method, and the cardiac safety was evaluated based on the single concentration inhibition rate or IC50 of the compound.
The cells used in this experiment were HEK293 cell lines transfected with hERG cDNA and stably expressing hERG channels (#60187, provided by BPS, P3-P23 generations were used for experimental research). The cells was cultured in a medium containing the following components: MEM medium, 10% (v/v) inactivated fetal bovine serum, 1 mM sodium pyruvate, 500 µg geneticin, 0.1 mM non-essential amino acids, 100 U penicillin-streptomycin. HEK293 hERG cells were grown in a culture flask containing the above culture solution and cultured in an incubator at 37°C and 5% CO2. […]
A manual patch clamp system (HEKA EPC-10 signal amplifier and digital conversion system, purchased from HEKA Electronics, Germany) was used to record whole-cell currents in electrophysiological experiments. […] After the hERG current recorded in the above steps reached stabilization under the continuous perfusion of extracellular solution in the recording chamber, different concentrations of the compound to be tested could be perfused until the inhibitory effect of the drug on the hERG current reached a stable state. […]
A general note: hERG is a cardiac potassium channel; its block is linked to QT prolongation.

The target of another series is T2, CYP2C9 (Homo sapiens, UniProt P11712).
T2 construct: 0.05 mg/mL liver microsomes (BioIVT, IHG) phosphate buffer solution; tissue BioIVT IHG; host or cells: human liver microsomes
Briefly: Inhibitory effect on human liver microsome CYP450 enzyme. Particulars: human liver microsomes, substrate Diclofenac Sodium. In kind it is in vitro ADME. As for the experimental part: (§1) In this experiment, the compound, liver microsomes and different CYP isoform enzyme substrates were incubated in a 37°C water bath, the amount of substrate metabolites generated was measured, and the inhibitory effect of the compound of the present disclosure on CYP enzyme was evaluated based on the IC50 value.
(§2) i. The compound was diluted with DMSO (Aladdin, catalog number: D103273-500ml) to concentrations of 0, 0.02, 0.06, 0.2, 0.6, 2 and 6 mM. The positive reference inhibitors for each CYP isoform and their concentrations are shown in Table 4 Table 4 Positive reference inhibitors for CYP isoform enzymes and their concentrations
(§3) ii. Phosphate buffer (sigma: V900050-500G) was used to formulate the substrate solution for each CYP isoform enzyme. Table 5 The substrate and the concentration thereof for CYP isoform enzyme
(§4) iii. Sample incubation. 1 µL of each concentration of the compound and positive reference inhibitor for CYP isoform enzyme were taken and placed into a 96-deep well plate (A-gen: P-1.0-RD-96-S), and 169 µL of 0.05 mg/mL liver microsomes (BioIVT, IHG) phosphate buffer solution (using 0.2 mg/mL liver microsomes for CYP2C19) was added. After uniform mixing, the plate was placed in a 37°C water bath (Shanghai Jinghong Experimental Equipment Co., Ltd., DK-500) with shaking for pre-incubation for 15 min. 10 µL of substrate (adding 1 µL of substrate for CYP3A4-Testosterone) and 20 µL of 10 mM NADPH phosphate buffer solution (MCE, HYF003/CS-4998) were added. After uniform mixing, the plate was incubated in a water bath with shaking for the following time: CYP1A2: 20 min, CYP2C9: 10 min, CYP2C19: 10 min, CYP2D6: 10 min, CYP3A4-Testosterone: 10 min, CYP3A4-Midazolam: 5 min. 400 µL of glacial acetonitrile/methanol (v/v, 1:1) containing an internal standard (500 nM tolbutamide, 5 nM terfenadine) was added to terminate the reaction. After centrifugation at 4000 rpm at 4°C for 40 min, the supernatant was taken and diluted with pure water according to the response of the metabolite of the substrate, and then UPLC-MS/MS (Sciex, Q-Trap 4500) was used for detection to obtain the peak area. The C18 chromatographic column was Kinetex 2.6u C18 100A (50 mm*3 mm).
(§5) The inhibitory effect of the compound on each P450 enzyme in human liver microsomes was calculated as the percentage of reduced metabolite formation compared with the non-inhibitory control (i.e. blank DMSO). The IC50 value of the compound for each P450 enzyme in human liver microsomes was calculated with the logarithm of the remaining activity and the inhibitor concentration using Graphpad Prism software. The calculation equation was as follows: Peak area ratio = compound peak area / internal standard peak area [formula] [formula]
(§6) In Graphpad Prism software, the IC50 value was calculated using the standard four-parameter curve fitting algorithm.

A further series has as its target T3, CYP2D6 (Homo sapiens, UniProt P10635).
T3 construct: 0.05 mg/mL liver microsomes (BioIVT, IHG) phosphate buffer solution; tissue BioIVT IHG; host or cells: human liver microsomes
The description is as above. In kind it is in vitro ADME. Particulars: human liver microsomes, substrate Dextromethorphan. As for the experimental part:
as §1, §2, §3, §4, §5, §6
A general note: Liver microsomes are a subcellular fraction often used to study metabolism.

The target in another series is T4, CYP3A4 (Homo sapiens, UniProt P08684).
T4 construct: 0.05 mg/mL liver microsomes (BioIVT, IHG) phosphate buffer solution; tissue BioIVT IHG; host or cells: human liver microsomes
Described as above. Particulars: liver microsomes. In kind it is in vitro ADME. As for the experimental part: as §1, §2, §3, §4, §5, §6

T4 sequence (P08684 whole entry): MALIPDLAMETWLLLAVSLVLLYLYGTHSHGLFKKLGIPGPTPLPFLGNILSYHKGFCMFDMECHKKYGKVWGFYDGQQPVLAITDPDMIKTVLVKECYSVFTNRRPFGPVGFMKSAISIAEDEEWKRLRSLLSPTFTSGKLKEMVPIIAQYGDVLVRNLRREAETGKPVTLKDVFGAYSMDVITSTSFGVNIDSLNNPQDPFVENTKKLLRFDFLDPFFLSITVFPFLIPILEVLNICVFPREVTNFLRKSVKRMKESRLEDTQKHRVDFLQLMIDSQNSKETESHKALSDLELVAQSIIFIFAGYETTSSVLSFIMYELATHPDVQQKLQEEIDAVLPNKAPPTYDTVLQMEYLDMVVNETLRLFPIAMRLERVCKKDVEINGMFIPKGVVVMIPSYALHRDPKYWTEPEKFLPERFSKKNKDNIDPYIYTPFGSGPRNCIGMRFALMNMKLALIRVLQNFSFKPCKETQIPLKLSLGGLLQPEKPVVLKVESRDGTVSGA
T3 sequence (P10635 whole entry): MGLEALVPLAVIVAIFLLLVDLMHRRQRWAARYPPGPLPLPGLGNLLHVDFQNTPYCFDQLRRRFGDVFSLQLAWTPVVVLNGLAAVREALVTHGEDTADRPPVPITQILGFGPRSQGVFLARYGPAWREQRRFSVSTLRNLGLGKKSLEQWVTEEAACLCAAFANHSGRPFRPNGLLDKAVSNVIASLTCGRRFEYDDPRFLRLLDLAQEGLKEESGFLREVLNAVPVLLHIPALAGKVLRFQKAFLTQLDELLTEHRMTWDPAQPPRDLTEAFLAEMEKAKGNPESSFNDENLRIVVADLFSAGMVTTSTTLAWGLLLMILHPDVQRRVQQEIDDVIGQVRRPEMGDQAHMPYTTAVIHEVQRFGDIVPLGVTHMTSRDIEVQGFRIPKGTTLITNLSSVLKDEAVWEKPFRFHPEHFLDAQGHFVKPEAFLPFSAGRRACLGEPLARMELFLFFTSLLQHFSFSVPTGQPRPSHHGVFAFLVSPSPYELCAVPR
T2 sequence (P11712 whole entry): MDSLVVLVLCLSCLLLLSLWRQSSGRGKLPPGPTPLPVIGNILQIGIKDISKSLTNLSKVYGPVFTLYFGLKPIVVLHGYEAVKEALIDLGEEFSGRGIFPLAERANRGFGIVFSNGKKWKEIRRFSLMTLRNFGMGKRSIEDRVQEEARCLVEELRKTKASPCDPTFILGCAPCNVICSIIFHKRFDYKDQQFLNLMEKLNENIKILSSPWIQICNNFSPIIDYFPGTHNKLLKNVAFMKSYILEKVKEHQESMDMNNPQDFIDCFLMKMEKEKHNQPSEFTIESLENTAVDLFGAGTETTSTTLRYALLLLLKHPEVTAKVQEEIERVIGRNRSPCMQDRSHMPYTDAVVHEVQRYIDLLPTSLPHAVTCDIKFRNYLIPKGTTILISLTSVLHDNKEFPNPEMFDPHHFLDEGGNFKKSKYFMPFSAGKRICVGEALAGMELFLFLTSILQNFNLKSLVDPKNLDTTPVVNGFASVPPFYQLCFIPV
T1 sequence (Q12809 whole entry): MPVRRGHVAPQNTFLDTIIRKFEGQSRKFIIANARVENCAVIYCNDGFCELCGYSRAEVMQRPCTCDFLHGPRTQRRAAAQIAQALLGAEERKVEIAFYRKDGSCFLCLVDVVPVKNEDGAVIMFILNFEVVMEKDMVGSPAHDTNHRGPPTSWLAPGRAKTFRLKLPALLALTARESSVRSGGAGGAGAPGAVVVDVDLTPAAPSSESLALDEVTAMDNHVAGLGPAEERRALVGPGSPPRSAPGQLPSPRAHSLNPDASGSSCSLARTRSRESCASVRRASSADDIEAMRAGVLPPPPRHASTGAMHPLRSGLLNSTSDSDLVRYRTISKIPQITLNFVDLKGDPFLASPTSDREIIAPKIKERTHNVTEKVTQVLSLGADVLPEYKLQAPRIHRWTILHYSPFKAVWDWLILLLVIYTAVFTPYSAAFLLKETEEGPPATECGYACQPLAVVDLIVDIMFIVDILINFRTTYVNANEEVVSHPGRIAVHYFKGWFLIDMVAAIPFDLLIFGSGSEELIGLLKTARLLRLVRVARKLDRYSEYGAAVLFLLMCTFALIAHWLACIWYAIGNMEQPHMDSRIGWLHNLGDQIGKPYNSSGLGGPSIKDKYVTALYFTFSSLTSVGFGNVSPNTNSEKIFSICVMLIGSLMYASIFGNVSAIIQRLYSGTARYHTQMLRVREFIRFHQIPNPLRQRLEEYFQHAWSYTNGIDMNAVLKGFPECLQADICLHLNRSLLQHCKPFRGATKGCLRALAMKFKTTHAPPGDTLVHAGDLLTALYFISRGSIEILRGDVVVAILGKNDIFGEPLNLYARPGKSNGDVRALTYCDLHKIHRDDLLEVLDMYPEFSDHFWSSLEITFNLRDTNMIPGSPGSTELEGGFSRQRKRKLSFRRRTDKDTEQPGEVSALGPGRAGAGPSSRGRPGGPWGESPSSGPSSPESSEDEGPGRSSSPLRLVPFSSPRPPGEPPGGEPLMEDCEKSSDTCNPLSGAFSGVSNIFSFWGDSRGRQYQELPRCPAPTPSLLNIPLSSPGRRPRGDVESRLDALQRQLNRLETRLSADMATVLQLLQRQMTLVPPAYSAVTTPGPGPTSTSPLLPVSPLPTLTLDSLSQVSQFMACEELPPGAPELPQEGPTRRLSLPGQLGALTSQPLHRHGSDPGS

With `Cn1c(=O)n(C2CCC(=O)NC2=O)c2cccc(N3CCC(N4CCN(C[C@H]5CC[C@H](n6cc(-n7cc(-c8cnn9ccc(N%10CCC[C@H](O)C%10)nc89)nn7)c(C(F)F)n6)CC5)CC4)CC3)c21` (some centres unmarked) [Example 146], the concentration for half-maximal inhibition (IC50) on hERG ion channel was 7.06 µM; on CYP2C9, > 30 µM; at CYP2D6 it was > 30 µM; on CYP3A4 (substrate Midazolam, read-out: IC50 (µM) CYP3A4-M) it was > 30 µM; on CYP3A4 (substrate Testosterone, read-out: IC50 (µM) CYP3A4-T), > 30 µM.
